From ChEMBL document CHEMBL1122128, “Quinazolines and 1,4-benzodiazepines. 90. Structure-activity relationship between substituted 2-amino-N-(2-benzoyl-4-chlorophenyl)acetamides and 1,4-benzodiazepinones” (J Med Chem, 1982)

Experiments:
Mus musculus = test: Dose that prevents convulsions in 50% of the CF1 male mice tested after administration of 70 mg/kg of metrazole by intravenous route; format: functional
[1] = target: GABA-A receptor; anion channel; test: In vitro displacement of [3H]-diazepam from GABA-A Benzodiazepine receptor; format: protein-complex assay
[2] = Lethal dose was determined after intraperitoneal administration in mice; format: toxicity, organism-based; settings: mouse, in vivo, ip

## CN(C(=O)CN)c1ccc(Cl)cc1C(=O)c1ccccc1
Mus musculus
  ED50: 1 mg/kg
[1]
  IC50: 9.9 nM

## O=C1CN=C(c2c(Cl)cccc2Cl)c2cc(Cl)ccc2N1 [RO-223294]
Mus musculus
  ED50: 6 mg/kg
[1]
  IC50: 5.5 nM

## Cl.NCC(=O)Nc1ccc(Cl)cc1C(=O)c1c(Cl)cccc1Cl
Mus musculus
  ED50: > 400 mg/kg
[1]
  IC50: 1000 nM

## O=C1CN=C(c2ccccc2Cl)c2cc(Cl)ccc2N1 [DELORAZEPAM]
Mus musculus
  ED50: 0.26 mg/kg
[1]
  IC50: 2.8 nM

## CN1C(=O)CN=C(c2ccccc2)c2cc(Cl)ccc21 [DIAZEPAM]
Mus musculus
  ED50: 1.2 mg/kg

## CN1C(=O)CN=C(c2c(Cl)cccc2Cl)c2cc(Cl)ccc21
Mus musculus
  ED50: 18.9 mg/kg
[1]
  IC50: 7 nM

## CN(C(=O)CN)c1ccc(Cl)cc1C(=O)c1c(Cl)cccc1Cl.Cl
Mus musculus
  ED50: > 200 mg/kg
[1]
  IC50: 930 nM
[2]
  LD50: 245 mg/kg

## NCC(=O)Nc1ccc(Cl)cc1C(=O)c1ccccc1Cl
Mus musculus
  ED50: 3.8 mg/kg
[1]
  IC50: 4.8 nM
